Data: patent publication EP0216290A2, “Use of thienyl amines as agents with an output-accelerating effect; thienyl amine” (BAYER AG, priority 1985, dated 1987)

Each compound was assayed on Weibliche Laborratten (assay: Rat feeding test (Ratten-Fütterungsversuch, Beispiel A)). Conditions: 25 ppm in feed ad lib, 13-day test, 12 female rats per group; relative to control without active substance = 100.
Type: in vivo, Laborratten vom Typ SPF Wistar
Text: Weibliche Laborratten 90-110 g schwer vom Typ SPF Wistar (Züchtung Hagemann) werden ad lib mit Standard Rattenfutter, das mit der gewünschten Menge Wirkstoff versetzt ist, gefüttert. Jeder Versuchsansatz wird mit Futter der identischen Charge durchgeführt, so daß Unterschiede in der Zusammensetzung des Futters die Vergleichbarkeit der Ergebnisse nicht beeinträchtigen können.
Die Ratten erhalten Wasser ad lib.
Jeweils 12 Ratten bilden eine Versuchsgruppe und werden mit Futter, das mit der gewünschten Menge Wirkstoff versetzt ist, gefüttert. Eine Kontrollgruppe erhält Futter ohne Wirkstoff. Das durchschnittliche Körpergewicht sowie die Streuung in den Körpergewichten der Ratten ist in jeder Versuchsgruppe gleich, so daß eine Vergleichbarkeit der Versuchsgruppen untereinander gewährleistet ist.
Während des 13-tägigen Versuchs werden Gewichtszunahme und Futterverbrauch bestimmt.
Es werden die aus der Tabelle ersichtlichen Ergebnisse erhalten: […]
Work on CCOC(=O)c1c(NC(=O)OC)sc(C)c1CC [Bsp. 1, 2-Aminomethoxycarbonyl-3-carbethoxy-4-ethyl-5-methylthiophen] yielded a Gewichtszunahme of 119.
With CCCCCc1cc(C(=O)OCC)c(NC(=O)OC2CCCCC2)s1 [Bsp. 19] the Gewichtszunahme was 115.
With CCCCCc1cc(C(=O)OCC)c(NC(=O)Oc2ccccc2C)s1 [Bsp. 20] the Gewichtszunahme was 109.
In the case of COC(=O)Nc1sc2c(c1C(=O)OC)CCCC2 [Bsp. 31], the Gewichtszunahme is reported as 109.
Work on CCOC(=O)c1cc(CC)sc1NC(=O)Oc1ccccc1 [Bsp. 56] yielded a Gewichtszunahme of 116.
